In paper PMC8039949, “A novel small-molecule PROTAC selectively promotes tau clearance to improve cognitive functions in Alzheimer-like models” (Theranostics, 2021):

Columns and labels:
[1] = molecular target: T1, tau (Mus musculus, UniProt P10637); test: Intragastrical gavage in wild-type mice, brain tau by Western blotting; format: in vivo; conditions: 4 m-old wild-type mice; intragastrical gavage 20 mg/kg; 48 h
Description: (§1) The cells or hippocampal/cortex tissues were homogenized for ~ 30 min on ice in buffer [50 mM Tris·HCl pH 7.4-7.5, 100 mM NaCl, 1% (vol/vol) Triton X-100, 5 mM EDTA, 1:100 PMSF, 1:1,000 protease inhibitor cocktail containing 4-(2-Aminoethyl)-benzenesulfonyl fluoride hydrochloride, aprotinin, bestatin, leupeptin, E-64, and pepstatin A stored at 4 °C], and then centrifuged at 12,000 × g at 4 °C for 20 min. The supernatant was collected and the protein levels were analyzed using bicinchoninic acid (BCA, KF016, Sigma-Aldrich) by following the manufacturer's instruction (served as soluble protein). The pellet was further incubated with 8% (wt/vol) SDS buffer at 4 °C and then treated by ultrasonic wave to reach a complete resuspension. The suspension was spun (18,000 × g, 4 °C for 20 min) and the supernatant collected (served as insoluble fraction). The supernatant of different faction was respectively mixed with loading buffer (3:1, vol/vol) containing 200 mM Tris-HCl, pH 6.8, 8% SDS, 40% glycerol, and boiled for 10 min. For Western blotting, the proteins were separated by 10% SDS-polyacrylamide gel via electrophoresis for about 2 h and transferred to nitrocellulose membranes (0.45 nm) for 1 h. […] Immunoreactive bands were quantitatively analyzed by Image J2x software.

[2] = tested on: tau; test: Multiple-doses subcutaneous administration in hTau transgenic mice, brain tau; format: in vivo, mouse; conditions: 12 m-old hTau transgenic mice, subcutaneous 3 mg/kg once every 6 days, 5 times
Description: (§2) For brain surgery and stereotaxic cerebroventricular drug delivery, the mice were placed in a stereotaxic apparatus and anesthetized with 2% isoflurane (RWD Life Science, R510-22) through a nose cone (300-500 mL/min, RWD Life Science, China, R500). The scalp was incised along the midline between the ears after the mice were sterilized with iodophors and 75% (vol/vol) alcohol. The holes were drilled stereotaxically in the skull at a cerebroventricular location (posterior 0.22 mm, lateral 0.9 mm, and ventral 2.3 mm relative to bregma). Using a microinjection system (Shenzhen RWD Life Technology Co., Ltd; RWD 69100), C004019 (5 μL, 200 μM) was infused at a rate of 0.5 μL/min. The needle was kept in place for 10 min before withdrawal. After the skin was sutured, the mice were placed on a heater for analepsia. For subcutaneous injection, C004019 was diluted with 20% HP-β-CD and injected under the skin on the back neck to reach a final concentration of 3 mg/kg (low dose) or 15 mg/kg (high dose).
as §1, with “min.” for “min. For Western blotting, the proteins were separated by 10% SDS-polyacrylamide gel via electrophoresis for about 2 h and transferred to nitrocellulose membranes (0.45 nm) for 1 h.”, “software. […]” for “software.”

[3] = molecular target: T2, MAP2 (Mus musculus, UniProt P20357); test: MAP2 protein level after intracerebroventricular infusion (specificity); format: in vivo; conditions: 4 m-old wild-type and 9.5 m-old 3xTg-AD mice; intracerebroventricular 5 μL, 200 μM
T2 construct: from tissue; host or cells: hippocampus and cortex of wild-type and 3xTg-AD mice
T2 sequence (P20357 whole entry, the tested form may be a part): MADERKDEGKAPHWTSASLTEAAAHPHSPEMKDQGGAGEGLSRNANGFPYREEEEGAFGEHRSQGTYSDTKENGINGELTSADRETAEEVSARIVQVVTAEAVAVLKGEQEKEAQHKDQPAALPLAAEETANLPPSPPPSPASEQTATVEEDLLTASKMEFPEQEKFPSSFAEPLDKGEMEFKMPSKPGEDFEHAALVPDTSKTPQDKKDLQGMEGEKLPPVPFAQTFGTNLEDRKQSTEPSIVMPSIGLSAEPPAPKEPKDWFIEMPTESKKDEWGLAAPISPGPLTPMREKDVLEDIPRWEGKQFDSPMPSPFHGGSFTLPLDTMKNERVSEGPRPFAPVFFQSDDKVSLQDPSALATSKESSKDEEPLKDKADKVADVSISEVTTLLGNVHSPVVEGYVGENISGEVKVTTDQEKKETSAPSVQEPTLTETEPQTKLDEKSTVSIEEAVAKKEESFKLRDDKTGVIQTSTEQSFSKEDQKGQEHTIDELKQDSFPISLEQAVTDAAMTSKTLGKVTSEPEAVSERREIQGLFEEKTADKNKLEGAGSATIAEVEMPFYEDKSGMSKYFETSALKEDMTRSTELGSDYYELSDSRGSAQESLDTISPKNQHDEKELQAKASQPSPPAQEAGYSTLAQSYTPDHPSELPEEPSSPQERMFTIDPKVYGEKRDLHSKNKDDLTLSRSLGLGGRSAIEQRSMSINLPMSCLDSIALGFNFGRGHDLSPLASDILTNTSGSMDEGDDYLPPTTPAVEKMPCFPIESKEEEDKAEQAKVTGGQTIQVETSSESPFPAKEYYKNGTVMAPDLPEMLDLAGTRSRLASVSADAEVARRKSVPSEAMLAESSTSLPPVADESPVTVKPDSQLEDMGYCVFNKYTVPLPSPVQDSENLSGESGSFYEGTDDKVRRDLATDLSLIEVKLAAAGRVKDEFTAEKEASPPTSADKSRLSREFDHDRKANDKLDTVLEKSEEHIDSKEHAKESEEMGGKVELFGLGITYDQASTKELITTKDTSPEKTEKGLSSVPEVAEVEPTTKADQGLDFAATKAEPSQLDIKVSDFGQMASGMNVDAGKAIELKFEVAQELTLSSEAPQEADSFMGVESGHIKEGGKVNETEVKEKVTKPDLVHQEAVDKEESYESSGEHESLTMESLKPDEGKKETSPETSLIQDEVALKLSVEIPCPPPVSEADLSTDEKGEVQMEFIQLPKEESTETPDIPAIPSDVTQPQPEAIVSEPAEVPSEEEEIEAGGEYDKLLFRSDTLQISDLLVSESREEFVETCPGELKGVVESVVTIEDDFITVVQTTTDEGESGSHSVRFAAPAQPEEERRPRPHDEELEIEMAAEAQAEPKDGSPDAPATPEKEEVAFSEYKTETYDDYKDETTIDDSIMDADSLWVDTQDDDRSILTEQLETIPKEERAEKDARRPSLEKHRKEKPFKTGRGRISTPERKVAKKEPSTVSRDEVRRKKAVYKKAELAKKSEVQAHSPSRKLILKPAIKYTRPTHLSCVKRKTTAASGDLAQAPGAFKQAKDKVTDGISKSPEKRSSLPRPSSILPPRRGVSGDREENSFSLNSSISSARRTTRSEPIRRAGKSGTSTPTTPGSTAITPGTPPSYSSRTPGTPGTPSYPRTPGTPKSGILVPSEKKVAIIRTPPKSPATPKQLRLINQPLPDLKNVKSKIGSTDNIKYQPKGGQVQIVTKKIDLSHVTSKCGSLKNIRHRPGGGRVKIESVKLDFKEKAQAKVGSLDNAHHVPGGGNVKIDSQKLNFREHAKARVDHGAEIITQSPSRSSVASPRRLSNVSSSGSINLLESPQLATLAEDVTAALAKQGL
Description: as §2, with “The needle was kept in place for 10 min before withdrawal. After the skin was sutured, the mice were placed on a heater for analepsia. For subcutaneous injection, C004019 was diluted with 20% HP-β-CD and injected under the skin on the back neck to reach a final concentration of 3 mg/kg (low dose) or 15 mg/kg (high dose).” left out
The cells or hippocampal/cortex tissues were homogenized for ~ 30 min on ice in buffer [50 mM Tris·HCl pH 7.4-7.5, 100 mM NaCl, 1% (vol/vol) Triton X-100, 5 mM EDTA, 1:100 PMSF, 1:1,000 protease inhibitor cocktail containing 4-(2-Aminoethyl)-benzenesulfonyl fluoride hydrochloride, aprotinin, bestatin, leupeptin, E-64, and pepstatin A stored at 4 °C], and then centrifuged at 12,000 × g at 4 °C for 20 min. The supernatant was collected and the protein levels were analyzed using bicinchoninic acid (BCA, KF016, Sigma-Aldrich) by following the manufacturer's instruction (served as soluble protein). […] Immunoreactive bands were quantitatively analyzed by Image J2x software.

[4] = molecular target: T1, tau; test: Single-dose subcutaneous administration in wild-type mice, brain tau by Western blotting; format: in vivo
Description: as §2
The cells or hippocampal/cortex tissues were homogenized for ~ 30 min on ice in buffer [50 mM Tris·HCl pH 7.4-7.5, 100 mM NaCl, 1% (vol/vol) Triton X-100, 5 mM EDTA, 1:100 PMSF, 1:1,000 protease inhibitor cocktail containing 4-(2-Aminoethyl)-benzenesulfonyl fluoride hydrochloride, aprotinin, bestatin, leupeptin, E-64, and pepstatin A stored at 4 °C], and then centrifuged at 12,000 × g at 4 °C for 20 min. The supernatant was collected and the protein levels were analyzed using bicinchoninic acid (BCA, KF016, Sigma-Aldrich) by following the manufacturer's instruction (served as soluble protein). The pellet was further incubated with 8% (wt/vol) SDS buffer at 4 °C and then treated by ultrasonic wave to reach a complete resuspension. The suspension was spun (18,000 × g, 4 °C for 20 min) and the supernatant collected (served as insoluble fraction). The supernatant of different faction was respectively mixed with loading buffer (3:1, vol/vol) containing 200 mM Tris-HCl, pH 6.8, 8% SDS, 40% glycerol, and boiled for 10 min. For Western blotting, the proteins were separated by 10% SDS-polyacrylamide gel via electrophoresis for about 2 h and transferred to nitrocellulose membranes ([…]) for 1 h. The membranes were blocked with 5% (wt/vol) BSA dissolved in PBS for 1 h and incubated with primary antibodies overnight at 4 °C in cold room. Membranes were then incubated with a secondary antibody for 1 h at room temperature and visualized using the ECL Imaging System (610007-8Q, Clinx Science Instruments Co., Ltd). Immunoreactive bands were quantitatively analyzed by Image J2x software.

T1 sequence (P10637 114-430 isoform P10637-2 limits assumed): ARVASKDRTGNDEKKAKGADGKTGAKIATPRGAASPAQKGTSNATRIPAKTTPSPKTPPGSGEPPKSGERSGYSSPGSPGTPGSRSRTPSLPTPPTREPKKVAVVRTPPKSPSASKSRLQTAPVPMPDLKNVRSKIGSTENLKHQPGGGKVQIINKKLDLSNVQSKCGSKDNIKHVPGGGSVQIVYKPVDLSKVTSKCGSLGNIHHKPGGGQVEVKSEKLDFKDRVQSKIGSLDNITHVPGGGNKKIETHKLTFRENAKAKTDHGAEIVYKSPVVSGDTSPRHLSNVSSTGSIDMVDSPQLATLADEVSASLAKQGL

## CC(=O)N1CCCN(c2nc(NCCc3cccs3)nc(N(C)CC(=O)NCCOCCOCCOCC(=O)N[C@H](C(=O)N3C[C@H](O)C[C@H]3C(=O)NCc3ccc(-c4scnc4C)cc3)C(C)(C)C)n2)CC1 [C004019]
[1]
  tau level in hippocampus and cortex: no significant tau reduction was detected
[2]
  p-tau and tau aggregation (HT7, AT8 immunohistochemistry, Thioflavin S staining): Reduction of p-tau and tau aggregation
[2]; Western blotting
  soluble and insoluble tau in cortex extracts: could reduce both soluble and insoluble tau
  total and p-tau levels in hippocampal extracts: significantly reduced total and p-tau levels
[3]
  protein level of MAP2: did not change the level of MAP2
[4]; 4 m-old wild-type mice, single-dose subcutaneous 3 mg/kg
  duration of tau reduction in the brain: sustained tau reduction till 8 days
[4]; 4 m-old wild-type mice, subcutaneous 3 mg/kg, 24 h, compared with 15 mg/kg
  tau level in hippocampus and cortex: much more significant tau reduction than that of high dose
[4]; 4 m-old wild-type mice, subcutaneous 15 mg/kg, 24 h and 48 h
  tau level in hippocampus and cortex: Significant tau reduction
[4]; wild-type mice, 8 days after one treatment
  tau reduction: 50%
